≈ marks a conversion by molar mass, not a printed value. Where two headings read alike, the source gives them in different places.
Assays:
[1] = biological target: HiBiT tagged Wee1 (Homo sapiens, UniProt P30291); experiment: Wee1 protein degradation assay (HiBiT assay); type: cell-based; details: engineered HT-1080 cells, 20 hours; for Dmax: maximum percentage of Wee1 degradation, read-out: HiBiT Wee1: Dmax
[2] = system: NCI-H1048 cells; experiment: NCI-H1048 cell proliferation assay (CTG assay); type: cell-based; details: Homo sapiens, 120 hours, read-out: CTG cellular assay_H1048: IC50
Outline: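 NCI-H1048 small cell lung cancer cells (RPMI-1640, 10% FBS) were exposed to 10-point half-log compound dilutions from 10 μM to 0.316 nM for 120 h at 37° C., 5% CO2. Viability was read by CellTiter-Glo luminescence and normalized to DMSO as percent of control. EC50 and DC50 were fitted with a four-parameter logistic model.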

[3] = Pharmacokinetic study in mice (IV and PO); type: in vivo; details: male CD1 mice; for F: PO (10 mg/kg) vs IV (2 mg/kg); for AUC(0-inf) / clearance / half-life / Cmax: mouse, plasma; for half-life: read-out: T½ (converted)
Protocol: Objective: the objective of this study was to determine the pharmacokinetics of test compound following intravenous (IV) and oral (PO) administration to male CD1 mice.
Materials: Male CD1 mouse (20-30 g, 6-8 weeks, Zhejiang Vital River Laboratory Animal Technology Co., Ltd.).
The CD1 mice were administered with the test article intravenously via tail vein at 2 mg/kg or orally at 10 mg/kg. The animals had free access to food and water. After dose administration, blood was collected from the dorsal metatarsal vein at 5 min (0.0833 h, IV only), 15 min (0.25 h), 30 min (0.5 h), 60 min (1 h), 2 h, 4 h, 6 h, 8 h and 24 h. Blood samples were placed in an anticoagulant tube with EDTA-K2, mixed adequately and centrifuged at 4° C., 4000 g for 5 minutes to get the plasma. The plasma samples were stored at −75±15° C. until analyzed by LC-MS/MS. The PK parameters were calculated using non-compartmental model by Phoenix WinNonlin 6.1 (Linear/log trapezoidal).

[4] = Permeability study in MDCKII cells (bidirectional A to B and B to A); type: in vitro ADME, Canine; details: dog, MDCK; for efflux ratio at 120 min, 1 μM: pH 7.4; for Papp A→B at 120 min, 1 μM / Papp B→A at 120 min, 1 μM: pH 7.4, 120 minutes; for Papp A→B at 120 min, 1 μM: apical to basolateral; for Papp B→A at 120 min, 1 μM: basolateral to apical
Protocol: MDCKII (Madin-Darby Canine Kidney cell line, wild type) cell was obtained from the Netherlands Cancer Institute, which was used for P-gp substrates or inhibitors screening and predicting the permeability of compounds with high efflux barriers such as duodenum, blood-brain barrier, hepatocyte nucleus and renal unit. The MDCKII cells with 10 to 22 passages were used for the permeability investigation.
MDCKII cells were cultured using Minimum Essential Media (MEM) at 37° C., 5% CO2 and 95% relative humidity. The cells were seeded in Transwell plate with 5.45×10^5 cells/cm^2. Then the cells were incubated in CO2 Incubator for 4-7 days for transport studies.
The complete medium was prepared by adding 10% FBS (fetal bovine serum) and 1% glutamax-1 to 500 ml MEM.
The dose concentrations of test compounds and control compounds were 1 μM. The bidirectional (A to B and B to A) permeability was evaluated. All incubations are performed in duplicate.
The regents were pre-incubated at 37±1° C. for 30 minutes. To determine the transport rate from apical to basolateral direction, 125 μL working solution (1 μM) was added to the Transwell insert (apical compartment), and 50 μL sample was immediately transferred from the apical compartment to a new 96-well plate as the initial donor sample (A-B) and mixed with 200 μL of acetonitrile or methanol containing IS. And 235 μL HBSS (10 mM HEPES, pH 7.4) was added to the receiver plate (basolateral compartment). To determine the transport rate from basolateral to apical direction, 285 μL working solution (1 μM) was added to the receiver plate (basolateral compartment), and 50 μL sample was immediately transferred from the basolateral compartment to a new 96-well plate as the initial donor sample (B-A) and mixed with 200 μL of acetonitrile or methanol containing IS. And 75 μL HBSS (10 mM HEPES, pH 7.4) was added to the Transwell insert (apical compartment). Then the plate was incubated at […] with 5% CO2 and 95% relative humidity for 120 minutes.
At the end of incubation, 50 μL samples from donor and receiver sides were transferred into a new 96-well plate. 200 μL of ice-cold acetonitrile or methanol containing appropriate internal standards (IS) was mixed with the samples. After vortex for 10 minutes, the samples are centrifuged at 3220 g for 40 minutes. An aliquot of 100 μL of the supernatant was mixed with appropriate volume of ultra-pure water and was analyzed by LC-MS/MS. All incubations are performed in duplicate.
The integrity of MDCKII cells were checked by Lucifer Yellow Rejection Assay after transport assay. The plate(s) were incubated with Lucifer Yellow solution at 37° C. for 30 minutes. The Lucifer Yellow fluorescence (to monitor monolayer integrity) was measured in a fluorescence plate reader at 480 nm excitation and 530 nm emission.
Test and reference compounds (metoprolol and digoxin) were semi-quantitatively analyzed, and the peak area ratio of the analyte and the internal standard was used to evaluate the concentration of the compounds.

[5] = Determination of kinetic solubility; type: physicochemical; details: PBS, aqueous buffer, kinetic from dmso stock, shaking at 25° C. for 2 hours
Protocol: An aliquot of 30 μL stock solution (10 mM) was placed in order into their proper 96-well rack. 970 μL of PBS was added into each vial of the cap-less solubility sample plate. The assay was performed in duplicate. In each vial, a stir stick was added and sealed with a molded PTFE/Silicone plug. […] Plugs were removed after 2 hours and the stir sticks were removed using a big magnet. Then the samples were transferred from the solubility sample plate into the filter plate. All the samples were filtered using the vacuum manifold. An aliquot of 5 μL filtrate was mixed with 5 μL DMSO and 490 μL of a mixture of H2O and acetonitrile (v:v, 1:1) containing internal standard. A certain proportion of ultrapure water was used to dilute according to the peak shape. The dilution factor was changed according to the solubility values and the LC-MS/MS signals.
An aliquot of 6 μL stock solution (10 mM in DMSO) was transferred from standard (STD) stock plate into a new plate, and then 194 μL of DMSO was added to get a STD working solution of 300 μM. Then 5 μL of 300 μM working solution was mixed with 5 μL of DMSO and 490 μL of a mixture of H2O and acetonitrile (v:v, 1:1) containing internal standard and the final STD concentration was 3 μM. The STD concentration were changed according to the LC-MS/MS signals.
The sample plate was put into the autosampler and the test compound concentration was determined by LC-MS/MS.

[6] = pH 3.0, read-out: Kinetic solubility (μM) pH 3.0
[7] = pH 5.0, read-out: Kinetic solubility (μM) pH 5.0

HiBiT tagged Wee1, sequence (P30291 whole entry): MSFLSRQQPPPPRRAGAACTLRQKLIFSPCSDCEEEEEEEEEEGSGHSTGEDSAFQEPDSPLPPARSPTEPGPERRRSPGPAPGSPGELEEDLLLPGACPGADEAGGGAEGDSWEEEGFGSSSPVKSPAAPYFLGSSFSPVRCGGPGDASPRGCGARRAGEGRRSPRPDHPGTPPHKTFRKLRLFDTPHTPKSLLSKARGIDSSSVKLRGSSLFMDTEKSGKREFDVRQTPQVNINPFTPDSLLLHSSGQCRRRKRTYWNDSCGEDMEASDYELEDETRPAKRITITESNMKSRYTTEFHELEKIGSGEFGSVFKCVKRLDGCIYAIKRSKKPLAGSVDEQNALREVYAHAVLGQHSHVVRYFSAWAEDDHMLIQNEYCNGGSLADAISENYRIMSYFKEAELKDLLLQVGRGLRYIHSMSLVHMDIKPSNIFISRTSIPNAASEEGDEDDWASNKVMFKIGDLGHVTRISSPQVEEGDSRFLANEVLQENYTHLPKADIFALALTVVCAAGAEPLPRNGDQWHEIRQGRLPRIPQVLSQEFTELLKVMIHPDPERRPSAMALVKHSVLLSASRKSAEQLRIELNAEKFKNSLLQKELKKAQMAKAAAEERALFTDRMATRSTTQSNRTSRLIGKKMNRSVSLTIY

DC50 [1]	Dmax [1]	IC50 [2]	F [3]	AUC(0-inf) ([3]; IV (2 mg/kg))	clearance ([3]; IV (2 mg/kg))	half-life ([3]; IV (2 mg/kg))	AUC(0-inf) ([3]; PO (10 mg/kg))	Cmax ([3]; PO (10 mg/kg))	half-life ([3]; PO (10 mg/kg))	efflux ratio at 120 min, 1 μM [4]	Papp A→B at 120 min, 1 μM [4]	Papp B→A at 120 min, 1 μM [4]	solubility kinetic at 2 h [5, 6]	solubility kinetic at 2 h [5, 7]	Structure (SMILES)
< 100 nM	> 75%	≤ 25 nM	80.2%	1130 ng·h/mL	29.5 mL/min/kg	2.81 h	4530 ng·h/mL	550 ng/mL	2.85 h						C=CCn1c(=O)c2cnc(Nc3ccc(N4CCC(CN5CCC(c6ccc(NC7CCC(=O)NC7=O)cc6)CC5)CC4)cc3)nc2n1-c1cccc(C(C)(C)O)n1 (stereo not shown) [Compound 72]
< 100 nM	50 to 75%	≤ 25 nM								0.94	1.35 ×10⁻⁶ cm/s	1.27 ×10⁻⁶ cm/s			C=CCn1c(=O)c2cnc(Nc3ccc(N4CCN(CC5CCN(c6cccc7c6n(C)c(=O)n7C6CCC(=O)NC6=O)CC5)CC4)cc3)nc2n1-c1cccc(C(C)(C)O)n1 (stereo not shown) [Compound 65]
< 100 nM	> 75%	≤ 25 nM	106%	10900 ng·h/mL	3.24 mL/min/kg	3.03 h	53200 ng·h/mL	4210 ng/mL	2.95 h	0.89	2.37 ×10⁻⁶ cm/s	2.11 ×10⁻⁶ cm/s	233 µM	132 µM	C=CCn1c(=O)c2cnc(Nc3ccc(N4CCN(CC5CCN(c6ccc(NC7CCC(=O)NC7=O)cc6F)CC5)CC4)cc3)nc2n1-c1ccc2c(n1)[C@@](O)(CC)CC2 (mixture of isomers) [Compound 110]
< 100 nM	50 to 75%	≤ 25 nM	23.6%	26700 ng·h/mL	1.25 mL/min/kg	7 h	31600 ng·h/mL	1880 ng/mL	7.2 h				252 µM (≈ 212 µg/mL)	148 µM (≈ 124 µg/mL)	C=CCn1c(=O)c2cnc(Nc3ccc(C4CCN(CC5CCN(c6cccc7c6n(C)c(=O)n7C6CCC(=O)NC6=O)CC5)CC4)cc3)nc2n1-c1cccc(C(C)(C)O)n1 (stereo not shown) [Compound 66]
< 100 nM	50 to 75%	≤ 25 nM											299 µM (≈ 260 µg/mL)	203 µM (≈ 176 µg/mL)	C=CCn1c(=O)c2cnc(Nc3ccc(N4CCC(CN(C)C5CCN(c6cccc7c6n(C)c(=O)n7C6CCC(=O)NC6=O)CC5)CC4)cc3)nc2n1-c1cccc(C(C)(C)O)n1 (stereo not shown) [Compound 61]
< 100 nM	50 to 75%	≤ 25 nM	38.9%	6980 ng·h/mL	4.78 mL/min/kg	5.7 h	13600 ng·h/mL	902 ng/mL	5.2 h	2.88	2.48 ×10⁻⁶ cm/s	7.09 ×10⁻⁶ cm/s	194 µM (≈ 163 µg/mL)	55.7 µM (≈ 46.8 µg/mL)	C=CCn1c(=O)c2cnc(Nc3ccc(N4CCC(CN5CCC(c6cccc7c6n(C)c(=O)n7C6CCC(=O)NC6=O)CC5)CC4)cc3)nc2n1-c1cccc(C(C)(C)O)n1 (stereo not shown) [Compound 55]
< 100 nM	> 75%	≤ 25 nM	75.4%	6730 ng·h/mL	4.95 mL/min/kg	2.79 h	25400 ng·h/mL	2730 ng/mL	3 h						C=CCn1c(=O)c2cnc(Nc3ccc(N4CCC(CN5CCN(c6ccc(NC7CCC(=O)NC7=O)cc6F)CC5)CC4)cc3)nc2n1-c1cccc(C(C)(C)O)n1 (stereo not shown) [Compound 71]
< 100 nM	> 75%	≤ 25 nM													C=CCn1c(=O)c2cnc(Nc3ccc(N4CCN(CC5CCN(c6ccc7c(N8CCC(=O)NC8=O)nn(C)c7c6F)CC5)CC4)cc3)nc2n1-c1ccc2c(n1)[C@](C)(O)CC2 [Compound 200]

Source: patent US20250049798A1, “WEE1 PROTEIN KINASE DEGRADATION AGENT AND USE THEREOF” (HANGZHOU GLUBIO PHARMACEUTICAL CO. LTD., priority 2021, published 2025)
